In ChEMBL document CHEMBL3994663, “Iminosugar-based ceramide mimicry for the design of new CERT START domain ligands” (Bioorg Med Chem, 2017):

Target: T1, Ceramide transfer protein (Homo sapiens) (UniProt Q9Y5P4)
T1 sequence (whole entry): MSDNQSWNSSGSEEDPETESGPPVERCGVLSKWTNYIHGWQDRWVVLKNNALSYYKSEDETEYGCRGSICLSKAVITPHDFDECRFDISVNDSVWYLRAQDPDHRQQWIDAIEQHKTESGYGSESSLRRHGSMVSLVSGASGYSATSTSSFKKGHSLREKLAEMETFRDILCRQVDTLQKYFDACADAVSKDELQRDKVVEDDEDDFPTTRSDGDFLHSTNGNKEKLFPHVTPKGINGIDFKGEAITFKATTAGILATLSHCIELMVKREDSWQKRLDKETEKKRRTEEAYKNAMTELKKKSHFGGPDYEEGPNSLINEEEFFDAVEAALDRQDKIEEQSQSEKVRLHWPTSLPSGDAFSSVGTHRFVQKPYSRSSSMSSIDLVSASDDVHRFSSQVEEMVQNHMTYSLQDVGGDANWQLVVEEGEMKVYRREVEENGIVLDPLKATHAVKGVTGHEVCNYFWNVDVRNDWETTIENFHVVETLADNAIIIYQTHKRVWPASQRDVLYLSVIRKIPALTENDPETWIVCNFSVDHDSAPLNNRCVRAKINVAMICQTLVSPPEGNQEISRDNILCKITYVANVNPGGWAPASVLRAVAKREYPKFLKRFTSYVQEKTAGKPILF
Assay: Inhibition of fluorescent ceramide probe binding to recombinant His-tagged START domain of CERT (unknown origin) assessed as bound fluorescent ceramide probe level at 200 pmol preincubated for 30 mins followed by ceramide probe addition after 30 mins by FLINT assay (reference value: 28.4 +/- 2.75%)
Set-up: scale not given: the % may be the effect or the level left

Question: With CCCCCCCCCCCCO[C@H]1CN(CCCCCCCCCCCC)C[C@@H](O)[C@@H]1O as the molecule, how does the Activity read?
Answer: 30.1%

Question: Which Activity does the source give for CCCCCCCCCCCCO[C@H]1CNC[C@@H](OCCCCCCCCCCCC)[C@@H]1O here?
Answer: 51.1%

Question: CCCCCCCCCCCCO[C@H]1CNC[C@@H](O)[C@@H]1O was tested. Which Activity did it give?
Answer: 41%

Question: How did the Activity turn out when CCCCCCCCCCCCN1C[C@@H](O)[C@H](O)[C@@H](O)C1 was run?
Answer: 48%

Question: How did the Activity turn out when O[C@H]1[C@H](O)CNC[C@@H]1O was run?
Answer: 36.6%

Question: Which Activity does the source give for CCCCCCCCCCCCO[C@@H]1CNC[C@@H](O)[C@@H]1O here?
Answer: 61.3%

Question: For CCCCCCCCCCCCO[C@@H]1CN(CCCCCCCCCCCC)C[C@@H](O)[C@@H]1O, which Activity is on record?
Answer: 54.3%

Question: With CCCCCCCCCCCC(=O)N[C@@H](CO)C[C@H](O)c1ccccc1 as the molecule, how does the Activity read?
Answer: 25.5%
